Test results as given in article PMC4316792, “The dehydrogenase region of the NADPH oxidase component Nox2 acts as a protein disulfide isomerase (PDI) resembling PDIA3 with a role in the binding of the activator protein p67^phox” (Frontiers in Chemistry, 2015).
“Also recorded” adds a separate entry of the source.

Key:
[1] = tested on: PDI; set-up: method as in 2 sources, one per row (each row's own in cited_ref): ref Gallina et al., [2002]; Raturi et al., [2005] ||| ref Dickerhof et al., [2011]; conditions: ref Dickerhof et al., [2011]; cited from earlier work
[2] = target: NADPH oxidase (macrophage membrane liposomes, cytochrome b558) (Cavia porcellus, UniProt H0UXC6); format: biochemical, guinea pig
[3] = tested on: PDIA1; conditions: ref Xu et al., [2012]; cited from earlier work
Description: Isomerization by PDI also requires the b′ domain (Ellgaard and Ruddock, [2005]) and, thus, an interact ...

[4] = tested on: NADPH oxidase in intact phagocytes / neutrophils; set-up: method as in 3 sources, one per row (each row's own in cited_ref): ref Cohen and Chovaniec, [1978]; Yamashita et al., [1984] ||| ref Le Cabec and Maridonneau-Parini, [1995] ||| ref Tsunawaki et al., [2004]; conditions: cited from earlier work
[5] = tested on: NADPH oxidase; set-up: method as in 8 sources, one per row (each row's own in cited_ref): ref Shpungin et al., [1989] ||| ref Bellavite et al., [1983]; Gabig and Lefker, [1984] ||| ref Pick et al., [1987] ||| ref Le Cabec and Maridonneau-Parini, [1995] ||| ref Nishida et al., [2005] ||| ...; conditions: cited from earlier work
[6] = tested on: Nox4; set-up: method as in Serrander et al., [2007]; conditions: ref Serrander et al., [2007]; cited from earlier work
[7] = tested on: p67^phox(1–212); experiment: Effect of H2O2 on binding of p67phox(1–212) to Nox2 peptide 24; conditions: p67^phox(1–212) 1.5 μM, H2O2 10 mM required (0.1, 1, 10 mM tested), 2 h at 4°C; three experiments (Figure 2C)
Protocol: This assay was used to assess the binding of p67^phox, in solution, to surface-attached synthetic Nox2 peptides. The procedure is a modified version of that described before (Morozov et al., [1998]; Dahan et al., [2002]). A brief description of the procedure is presented here. Synthetic Nox2 peptides, with a biotin tag at either the N- or C-terminus, were diluted to a concentration of 1 μM in PBS supplemented with 1% casein. 200 μl/well volumes were added to streptavidin-coated 96 well plates (BioBind Assembly, streptavidin-coated, Cat. No. 95029263, Thermo Fisher Scientific) and the plates incubated for 1 h at room temperature, the well contents being mixed on an orbital shaker. […] Bound peroxidase was quantified as described for the protein—protein binding assay.
Figure 2 Treatment of p67^phox with N-ethylmaleimide (NEM), diamide, or H2O2 reverses the enhanced binding to Nox2 peptides containing an intramolecular disulfide bond. p67^phox(1–526) (1.5 μM) was incubated with NEM (0.1 mM) (A) or diamide (5 mM) (B), for 1 h at room temperature. p67^phox(1–212) (1.5 μM) was exposed to H2O2 (0.1, 1, or 10 mM) for 2 h at 4°C (C). […] The binding of treated and untreated p67^phox, in solution, to surface-attached Nox2 peptide 24 (357–371), with an N-terminal biotin tag, was measured. […]

[8] = tested on: PDIA3; set-up: method as in Jasuja et al., [2012]; conditions: ref Jasuja et al., [2012]; cited from earlier work

**Q.** With bacitracin A as the compound, how does the “inhibitory potency on PDI” value [1] read?
**A.** Its value is “low inhibitory potency”.

**Q.** With PACMA 31 as the compound, how does the “inhibition of oxidase activation, in words” value [2] read?
**A.** Its value is “Lack of an inhibitory effect”.

**Q.** And the “specificity for PDIA1” value [3]?
**A.** Its value is “exquisite specificity”.

**Q.** Which results are given for `CN1C(=O)[C@]23CC4=CC=C[C@H](O)[C@H]4N2C(=O)[C@@]1(CO)SS3` [gliotoxin]?
**A.** IC50, NADPH oxidase activation [2]: could not be determined; inhibition of oxidase activation, in words [2]: poor inhibitor; inhibition of oxidase activation in neutrophils [4]: inhibit oxidase activation; inhibition of oxidase activation in vitro [5]: marked inhibitory effect; also recorded: inhibit oxidase activation; effect on Nox4 [6]: did not affect

**Q.** Which “effect of H2O2 treatment of p67phox on binding to peptide 24 in the disulfide form” value [7] does the source give for `OO` [H2O2] here?
**A.** The value was “markedly reduced”.

**Q.** What about the “effect of exposure of phagocyte membranes on oxidase assembly” value ([5]; without effect on the assembled complex, ref Ostuni et al., [2010]) of the same compound?
**A.** The value was “inhibits oxidase assembly”.

**Q.** Which results are given for `C[C@@H]1O[C@@H](OC[C@H]2O[C@@H](Oc3c(-c4ccc(O)c(O)c4)oc4cc(O)cc(O)c4c3=O)[C@H](O)[C@@H](O)[C@@H]2O)[C@H](O)[C@H](O)[C@H]1O` [rutin]?
**A.** inhibition of oxidase activation, in words [2]: Lack of an inhibitory effect; inhibitory effect on PDIA3 [8]: lack an inhibitory effect
